What was measured:
[1] = system: Escherichia coli ARLG 2829; assay: MIC test of compounds in combination with antibiotics, Escherichia coli ARLG 2829; details: for MIC of biapenem in combination with compound, Escherichia coli ARLG-2829 NDM-5, OXA-1: Biapenem + compound (8 μg/mL); for MIC of meropenem in combination with compound, Escherichia coli ARLG-2829 NDM-5, OXA-1: Meropenem + compound (8 μg/mL)
[2] = system: Klebsiella pneumoniae ARLG 1196; assay: MIC test of compounds in combination with antibiotics, Klebsiella pneumoniae ARLG 1196; details: for MIC of biapenem in combination with compound, Klebsiella pneumoniae ARLG-1196 CTM-1 group, SHV, NDM, TEM: Biapenem + compound (8 μg/mL); for MIC of meropenem in combination with compound, Klebsiella pneumoniae ARLG-1196 CTM-1 group, SHV, NDM, TEM: Meropenem + compound (8 μg/mL)
[3] = system: Klebsiella pneumoniae ATCC BAA-2470; assay: MIC test of compounds in combination with antibiotics, Klebsiella pneumoniae ATCC BAA-2470; details: for MIC of biapenem in combination with compound, Klebsiella pneumoniae ATCC BAA-2470 NDM-1: Biapenem + compound (8 μg/mL); for MIC of meropenem in combination with compound, Klebsiella pneumoniae ATCC BAA-2470 NDM-1: Meropenem + compound (8 μg/mL)
[4] = system: Klebsiella pneumoniae ATCC BAA-1705; assay: MIC test of compounds in combination with antibiotics, Klebsiella pneumoniae ATCC BAA-1705; details: for MIC of biapenem in combination with compound, Klebsiella pneumoniae ATCC BAA-1705 KPC-2: Biapenem + compound (8 μg/mL); for MIC of meropenem in combination with compound, Klebsiella pneumoniae ATCC BAA-1705 KPC-2: Meropenem + compound (8 μg/mL)
[5] = system: Acinetobacter baumannii WX-AB005; assay: MIC test of compounds in combination with antibiotics, Acinetobacter baumannii WX-AB005; details: for MIC of biapenem in combination with compound, Acinetobacter baumannii WX-AB005: Biapenem + compound (8 μg/mL); for MIC of meropenem in combination with compound, Acinetobacter baumannii WX-AB005: Meropenem + compound (8 μg/mL)
[6] = system: Acinetobacter baumannii WX-AB013; assay: MIC test of compounds in combination with antibiotics, Acinetobacter baumannii WX-AB013; details: for MIC of biapenem in combination with compound, Acinetobacter baumannii WX-AB013: Biapenem + compound (8 μg/mL); for MIC of meropenem in combination with compound, Acinetobacter baumannii WX-AB013: Meropenem + compound (8 μg/mL)
[7] = system: Acinetobacter baumannii ARLG-1791 OXA-23; assay: MIC test of compounds in combination with antibiotics, Acinetobacter baumannii ARLG-1791; details: for MIC of biapenem in combination with compound, Acinetobacter baumannii ARLG-1791 OXA-23: Biapenem + compound (8 μg/mL); for MIC of meropenem in combination with compound, Acinetobacter baumannii ARLG-1791 OXA-23: Meropenem + compound (8 μg/mL)
[8] = system: Acinetobacter baumannii ARLG-1809 OXA-23; assay: MIC test of compounds in combination with antibiotics, Acinetobacter baumannii ARLG-1809; details: for MIC of biapenem in combination with compound, Acinetobacter baumannii ARLG-1809 OXA-23: Biapenem + compound (8 μg/mL); for MIC of meropenem in combination with compound, Acinetobacter baumannii ARLG-1809 OXA-23: Meropenem + compound (8 μg/mL)
[9] = system: Acinetobacter baumannii ARLG-1852 OXA-23; assay: MIC test of compounds in combination with antibiotics, Acinetobacter baumannii ARLG-1852; details: for MIC of biapenem in combination with compound, Acinetobacter baumannii ARLG-1852 OXA-23: Biapenem + compound (8 μg/mL); for MIC of meropenem in combination with compound, Acinetobacter baumannii ARLG-1852 OXA-23: Meropenem + compound (8 μg/mL)
[10] = system: Acinetobacter baumannii ARLG-1853 OXA-23; assay: MIC test of compounds in combination with antibiotics, Acinetobacter baumannii ARLG-1853; details: for MIC of biapenem in combination with compound, Acinetobacter baumannii ARLG-1853 OXA-23: Biapenem + compound (8 μg/mL); for MIC of meropenem in combination with compound, Acinetobacter baumannii ARLG-1853 OXA-23: Meropenem + compound (8 μg/mL)

MIC of biapenem in combination with compound, Escherichia coli ARLG-2829 NDM-5, OXA-1 [1] [µg/mL] | MIC of meropenem in combination with compound, Escherichia coli ARLG-2829 NDM-5, OXA-1 [1] [µg/mL] | MIC of biapenem in combination with compound, Klebsiella pneumoniae ARLG-1196 CTM-1 group, SHV, NDM, TEM [2] [µg/mL] | MIC of meropenem in combination with compound, Klebsiella pneumoniae ARLG-1196 CTM-1 group, SHV, NDM, TEM [2] [µg/mL] | MIC of biapenem in combination with compound, Klebsiella pneumoniae ATCC BAA-2470 NDM-1 [3] [µg/mL] | MIC of meropenem in combination with compound, Klebsiella pneumoniae ATCC BAA-2470 NDM-1 [3] [µg/mL] | MIC of biapenem in combination with compound, Klebsiella pneumoniae ATCC BAA-1705 KPC-2 [4] [µg/mL] | MIC of meropenem in combination with compound, Klebsiella pneumoniae ATCC BAA-1705 KPC-2 [4] [µg/mL] | MIC of biapenem in combination with compound, Acinetobacter baumannii WX-AB005 [5] [µg/mL] | MIC of meropenem in combination with compound, Acinetobacter baumannii WX-AB005 [5] [µg/mL] | MIC of biapenem in combination with compound, Acinetobacter baumannii WX-AB013 [6] [µg/mL] | MIC of meropenem in combination with compound, Acinetobacter baumannii WX-AB013 [6] [µg/mL] | MIC of biapenem in combination with compound, Acinetobacter baumannii ARLG-1791 OXA-23 [7] [µg/mL] | MIC of meropenem in combination with compound, Acinetobacter baumannii ARLG-1791 OXA-23 [7] [µg/mL] | MIC of biapenem in combination with compound, Acinetobacter baumannii ARLG-1809 OXA-23 [8] [µg/mL] | MIC of meropenem in combination with compound, Acinetobacter baumannii ARLG-1809 OXA-23 [8] [µg/mL] | MIC of biapenem in combination with compound, Acinetobacter baumannii ARLG-1852 OXA-23 [9] [µg/mL] | MIC of meropenem in combination with compound, Acinetobacter baumannii ARLG-1852 OXA-23 [9] [µg/mL] | MIC of biapenem in combination with compound, Acinetobacter baumannii ARLG-1853 OXA-23 [10] [µg/mL] | MIC of meropenem in combination with compound, Acinetobacter baumannii ARLG-1853 OXA-23 [10] [µg/mL] | SMILES
0.25 | 8 | 0.5 | 8 | 0.25 | 32 | 0.5 | 8 | 4 | 32 | 1 | 8 | 2 | 16 | 4 | 32 | 0.5 | 4 | 1 | 8 | CC(Sc1ccc2c(c1C(=O)O)OB(O)C1CC21)C1CCOCC1 (single isomer, unassigned) [Compound 17-a]
0.25 | 4 | 0.5 | 8 | 0.25 | 64 | 2 | 8 | 4 | 32 | 2 | 16 | 2 | 16 | 4 | 32 | 0.5 | 8 | 1 | 16 | CC(Sc1ccc2c(c1C(=O)O)OB(O)C1CC21)C1CCOCC1 (single isomer, unassigned) [Compound 17-b]

Further lines, the molecule ahead of its results:

SMILES | MIC of biapenem in combination with compound, Escherichia coli ARLG-2829 NDM-5, OXA-1 [1] [µg/mL] | MIC of meropenem in combination with compound, Escherichia coli ARLG-2829 NDM-5, OXA-1 [1] [µg/mL] | MIC of biapenem in combination with compound, Klebsiella pneumoniae ARLG-1196 CTM-1 group, SHV, NDM, TEM [2] [µg/mL] | MIC of meropenem in combination with compound, Klebsiella pneumoniae ARLG-1196 CTM-1 group, SHV, NDM, TEM [2] [µg/mL] | MIC of biapenem in combination with compound, Klebsiella pneumoniae ATCC BAA-2470 NDM-1 [3] [µg/mL] | MIC of meropenem in combination with compound, Klebsiella pneumoniae ATCC BAA-2470 NDM-1 [3] [µg/mL] | MIC of biapenem in combination with compound, Klebsiella pneumoniae ATCC BAA-1705 KPC-2 [4] [µg/mL] | MIC of meropenem in combination with compound, Klebsiella pneumoniae ATCC BAA-1705 KPC-2 [4] [µg/mL] | MIC of biapenem in combination with compound, Acinetobacter baumannii WX-AB005 [5] [µg/mL] | MIC of meropenem in combination with compound, Acinetobacter baumannii WX-AB005 [5] [µg/mL] | MIC of biapenem in combination with compound, Acinetobacter baumannii WX-AB013 [6] [µg/mL] | MIC of meropenem in combination with compound, Acinetobacter baumannii WX-AB013 [6] [µg/mL] | MIC of biapenem in combination with compound, Acinetobacter baumannii ARLG-1791 OXA-23 [7] [µg/mL] | MIC of meropenem in combination with compound, Acinetobacter baumannii ARLG-1791 OXA-23 [7] [µg/mL] | MIC of biapenem in combination with compound, Acinetobacter baumannii ARLG-1809 OXA-23 [8] [µg/mL] | MIC of meropenem in combination with compound, Acinetobacter baumannii ARLG-1809 OXA-23 [8] [µg/mL] | MIC of biapenem in combination with compound, Acinetobacter baumannii ARLG-1852 OXA-23 [9] [µg/mL] | MIC of meropenem in combination with compound, Acinetobacter baumannii ARLG-1852 OXA-23 [9] [µg/mL] | MIC of biapenem in combination with compound, Acinetobacter baumannii ARLG-1853 OXA-23 [10] [µg/mL] | MIC of meropenem in combination with compound, Acinetobacter baumannii ARLG-1853 OXA-23 [10] [µg/mL]
CC(Sc1ccc2c(c1C(=O)O)OB(O)C1CC21)C1CC1 (single isomer, unassigned) [Compound 16-a] | 0.25 | 2 | 0.5 | 1 | 1 | 2 | 0.5 | 4 | 2 | 8 | 0.5 | 4 | 0.5 | 4 | 1 | 2 | 0.25 | 2 | 0.5 | 2
CC(Sc1ccc2c(c1C(=O)O)OB(O)C1CC21)C1CC1 (single isomer, unassigned) [Compound 16-b] | 0.5 | 16 | 0.5 | 8 | 1 | 16 | 0.25 | 2 | 4 | 8 | 2 | 4 | 1 | 8 | 2 | 4 | 0.5 | 4 | 1 | 8
CC(Sc1ccc2c(c1C(=O)O)OB(O)C1CC21)C1CC1 (single isomer, unassigned) [Compound 16-c] | ≤0.125 | 4 | 1 | 2 | 0.5 | 8 | 1 | 8 | 4 | 8 | 2 | 4 | 1 | 8 | 2 | 4 | 1 | 4 | 1 | 4
CC(Sc1ccc2c(c1C(=O)O)OB(O)C1CC21)C1CC1 (single isomer, unassigned) [Compound 16-d] | ≤0.125 | 0.5 | ≤0.125 | 0.25 | 0.25 | 0.5 | 0.5 | 2 | 2 | 8 | 0.5 | 4 | 0.5 | 8 | 0.5 | 4 | 0.25 | 2 | 0.25 | 2

From US20250223303A1, “TRICYCLIC BORONIC ACID DERIVATIVE, AND PREPARATION METHOD THEREFOR AND APPLICATION THEREOF” (priority 2021, published 2025)
